Here are results for 103 compounds from the RepoRT retention time repository (doi:10.1016/j.foodchem.2015.11.070).

The nature of the series: Thermo Scientific Hypersil GOLD aQ, 100 × 2.1 mm, 1.9 µm, 30 °C, 0.3 mL/min, estimated dead time 0.73 min; A: water + 0.01% formic acid + 4 mM ammonium formate; B: methanol + 0.01% formic acid + 4 mM ammonium formate; gradient (min/%B) 0/5 1/5 8/100 12/100. The following applies: stereoisomer not certain.
For `Cc1ccc(N=CN(C)C=Nc2ccc(C)cc2C)c(C)c1`, the LC retention time is 9.09 min. As for `CCOP(=S)(Oc1ccc([N+](=O)[O-])cc1)c1ccccc1` (stereo not drawn), the LC retention time is 9.71 min. Under `COC(=O)c1ccccc1CS(=O)(=O)NC(=O)Nc1nc(OC)cc(OC)n1` stands 9.3 min.

`CCS(=O)(=O)CCSP(=O)(OC)OC`: the LC retention time is 6.13 min. The figure for `CNC(=O)Oc1cc(C)c(S(C)(=O)=O)c(C)c1` is 6.96 min. On to `CCCCN(CCCC)SN(C)C(=O)Oc1cccc2c1OC(C)(C)C2`, for which the LC retention time was 11.1 min. The figure for `CNC(=O)Oc1cccc2c1OC(C)(C)O2` is 8.4 min. On to `COP(=O)(OC)Oc1ccc([N+](=O)[O-])cc1`, for which the LC retention time was 8.12 min. The figure for `COP(=S)(OC)SCn1nnc2ccccc2c1=O` is 9.38 min. The figure for `CCOP(=O)(SC(C)CC)SC(C)CC` (stereo not drawn) is 10.5 min; for `CC(C)(C)c1ccc(CCOc2ncnc3ccccc23)cc1` it is 11.8 min; for `Cc1cc(C2CC2)nc(Nc2ccccc2)n1` it is 10.3 min.

Turning to `CCC1CCCC(OC2CCC(N(C)C)C(C)O2)C(C)C(=O)C2=CC3C(C=CC4CC(OC5OC(C)C(OC)C(OC)C5OC)CC43)C2CC(=O)O1` (stereo not drawn), the LC retention time is 10.3 min. The figure for `CCSCCSP(=S)(OC)OC` is 8.94 min; for `CNC(=O)ON=CC(C)(C)S(C)(=O)=O` it is 7.37 min; for `CCOC(=O)c1cn2nc(OP(=S)(OCC)OCC)cc2nc1C` it is 10.4 min. The figure for `CON(C(=O)c1cc(C)oc1C)C1CCCCC1` is 10.2 min; for `CN(C)c1nc(=O)n(C2CCCCC2)c(=O)n1C` it is 8.61 min. Turning to `CCCSP(=O)(OCC)SCCC`, the LC retention time is 9.93 min.

On to `COc1cc2c(c3oc(=O)c4c(c13)CCC4=O)C1C=COC1O2` (stereo not drawn), for which the LC retention time was 8.44 min. The figure for `COP(=O)(NC(C)=O)SC` (stereo not drawn) is 1.58 min.

As for `CCOP(=S)(OCC)Oc1cnc2ccccc2n1`, the LC retention time was 10.2 min. Under `Cc1ccc2nc3sc(=O)sc3nc2c1` stands 9.19 min. For the compound `CCCN(CCC)C(=O)SCC`, the LC retention time is 10.1 min.

Take `CNC(=O)C(C)SCCSP(=O)(OC)OC` (stereo not drawn): the LC retention time is 7.11 min. The figure for `Cc1cc(C)c(C2=C(OC(=O)CC(C)(C)C)C3(CCCC3)OC2=O)c(C)c1` is 10.9 min; for `CCC(CC)Nc1c([N+](=O)[O-])cc(C)c(C)c1[N+](=O)[O-]` it is 11.1 min; for `CCOP(=S)(OCC)OP(=S)(OCC)OCC` it is 10.1 min. The figure for `CNC(=O)CSP(=S)(OC)OC` is 7.18 min; for `CCCC(=NOCC)C1=C(O)CC(C2CCCSC2)CC1=O` (stereo not drawn) it is 10.5 min; for `COP(=S)(NC(C)C)Oc1ccccc1C(=O)OC(C)C` (stereo not drawn) it is 8.98 min.

For `CCCCOC(=O)N(C)SN(C)C(=O)Oc1cccc2c1OC(C)(C)C2`, the LC retention time is 10.6 min. Under `CC(C)C1(C)N=C(c2ncccc2C(=O)O)NC1=O` (stereo not drawn) stands 6.79 min; under `CCS(=O)Cc1ccccc1OC(=O)NC` (stereo not drawn), 7.09 min. `CC(Cc1ccc(C(C)(C)C)cc1)CN1CC(C)OC(C)C1` (stereo not drawn): the LC retention time was 9.38 min.

On to `CNC(=O)Oc1ccccc1OC(C)C`, for which the LC retention time is 8.36 min. Under `COP(=O)(OC)OC(C)=CC(=O)N(C)C` stands 6.63 min; under `CNC(=O)Oc1cccc2c1OC(C)(C)C2`, 8.41 min. Turning to `CCOP(=S)(OCC)SCCS(=O)CC` (stereo not drawn), the LC retention time is 8.89 min. The figure for `Cc1ccc(C(C)NC(=O)C(NC(=O)OC(C)C)C(C)C)cc1` (stereo not drawn) is 9.73 min; for `Cc1cc(=O)[nH]o1` it is 5.67 min. Under `Cc1nc(N(C)C)nc(OC(=O)N(C)C)c1C` stands 7.91 min. As for `CCNC(=O)NC(=O)C(C#N)=NOC`, the LC retention time was 8.63 min.

As to `CCC(C)Nc1c([N+](=O)[O-])cc(C(C)(C)C)cc1[N+](=O)[O-]` (stereo not drawn), the LC retention time was 9.23 min. The figure for `CCOP(=S)(OCC)Oc1cc(C)nc(C(C)C)n1` is 10.2 min. Under `CCSCCSP(=O)(OC)OC` stands 8.74 min; under `CC(Cc1ccc(C(C)(C)C)cc1)CN1CCCCC1` (stereo not drawn), 9.29 min; under `CC(=O)OCC12CC(OC(=O)CC(C)C)C(C)=CC1OC1C(O)C(OC(C)=O)C2(C)C12CO2` (stereo not drawn), 9.3 min. The figure for `CCC(C)c1cc([N+](=O)[O-])cc([N+](=O)[O-])c1OC(=O)OC(C)C` (stereo not drawn) is 9.22 min.

For the compound `COc1cc2c(c3oc(=O)c4c(c13)CCC4=O)C1CCOC1O2` (stereo not drawn), the LC retention time is 8.26 min. Under `COc1cc2c(c3oc(=O)c4c(c13)CCOC4=O)C1CCOC1O2` (stereo not drawn) stands 7.8 min; under `COCC(=O)N(c1c(C)cccc1C)C(C)C(=O)OC` (stereo not drawn), 9.04 min.

As for `CCOP(=S)(NC(C)C)Oc1ccccc1C(=O)OC(C)C` (stereo not drawn), the LC retention time was 7.91 min. Under `CNC(=O)ON=C(CS(C)=O)C(C)(C)C` (stereo not drawn) stands 6.31 min.

Consider `CCOP(=O)(NC(C)C)Oc1ccc(S(C)(=O)=O)c(C)c1` (stereo not drawn), for which the LC retention time is 8.51 min. Under `CCCN(CC)CC1COC2(CCC(C(C)(C)C)CC2)O1` (stereo not drawn) stands 9.58 min; under `CNC(=O)Oc1cccc(N=CN(C)C)c1`, 7.91 min.

Regarding `CCOC(=O)C(SP(=S)(OC)OC)c1ccccc1` (stereo not drawn), the LC retention time was 10.1 min.

Consider `O=c1[nH]c2c(c(=O)n1C1CCCCC1)CCC2`, for which the LC retention time is 9.11 min. On to `CC(C)N(Cc1ccccc1)C(=O)C(C)(C)C`, for which the LC retention time is 9.96 min. The figure for `c1ccc(Nc2ccccc2)cc1` is 6.3 min; for `CNC(=O)ON=C(C)SC` it is 6.05 min; for `CC=C(C)C(=O)OC1CC(OC(C)=O)C2(C(=O)OC)COC3C2C12COC(O)(C(=O)OC)C2C(C)(C12OC1(C)C1CC2OC2OC=CC21O)C3O` (stereo not drawn) it is 8.67 min. Under `CCS(=O)(=O)c1cccnc1S(=O)(=O)NC(=O)Nc1nc(OC)cc(OC)n1` stands 8.71 min.

On to `CCOP(=S)(OCC)Oc1ccc([N+](=O)[O-])cc1`, for which the LC retention time is 9.21 min.

Turning to `CSc1nnc(C(C)(C)C)c(=O)n1N`, the LC retention time is 8.41 min. In the case of `CSC(C)=NOC(=O)N(C)SN(C)C(=O)ON=C(C)SC`, the LC retention time is 8.88 min.

For `CCCCC(C)C(OC(=O)CC(CC(=O)O)C(=O)O)C(CC(C)CCCCCCC(O)CC(O)C(C)N)OC(=O)CC(CC(=O)O)C(=O)O` (stereo not drawn), the LC retention time was 7.46 min. The figure for `C#CCOS(=O)OC1CCCCC1Oc1ccc(C(C)(C)C)cc1` (stereo not drawn) is 10.9 min. Turning to `CCOC(=O)N(C)C(=O)CSP(=S)(OCC)OCC`, the LC retention time is 9.84 min. `COC(=O)C(C)N(C(=O)Cc1ccccc1)c1c(C)cccc1C` (stereo not drawn): the LC retention time is 10.2 min. Under `CC(=O)OCC12CC(OC(=O)CC(C)C)C(C)=CC1OC1C(O)C(O)C2(C)C12CO2` (stereo not drawn) stands 8.35 min; under `CCCCc1c(C)nc(NCC)nc1OS(=O)(=O)N(C)C`, 9.87 min; under `CNC(=O)ON=C(SC)C(=O)N(C)C`, 5.75 min. The figure for `CCOP(=S)(OCC)SCSC(C)(C)C` is 7.2 min; for `CCOc1ccc(NC(=O)OC(C)C)cc1OCC` it is 9.37 min; for `CNC(=O)Oc1cc(C)cc(C(C)C)c1` it is 9.52 min. Turning to `CCOP(=S)(OCC)Oc1ccc(=O)n(-c2ccccc2)n1`, the LC retention time is 9.71 min. The figure for `COCC(=O)N(c1c(C)cccc1C)N1CCOC1=O` is 8.04 min. On to `CNC(=O)ON=CC(C)(C)SC`, for which the LC retention time is 7.89 min.

`COc1cc(OC)nc(NC(=O)NS(=O)(=O)c2ncccc2C(=O)N(C)C)n1`: the LC retention time was 8.01 min.

In the case of `CC1(c2ccc(Oc3ccccc3)cc2)OC(=O)N(Nc2ccccc2)C1=O` (stereo not drawn), the LC retention time was 10.2 min. The figure for `COP(=S)(OC)Oc1ccc([N+](=O)[O-])cc1` is 9.96 min.

In the case of `CCOP(=S)(OCC)SCCS(=O)(=O)CC`, the LC retention time was 8.89 min. The figure for `c1ccc2[nH]c(-c3cscn3)nc2c1` is 6.96 min; for `CCOc1ccc2c(c1)C(C)=CC(C)(C)N2` it is 9.07 min; for `Cc1ccc(OP(=O)(Oc2ccc(C)cc2)Oc2ccc(C)cc2)cc1` it is 11.9 min.

For `CCCC(=NOCC)C1=C(O)CC(CC(C)SCC)CC1=O` (stereo not drawn), the LC retention time was 10.7 min. Regarding `CCOP(=S)(Oc1ccc(C#N)cc1)c1ccccc1` (stereo not drawn), the LC retention time was 8.72 min.

For `CNC(=O)ON=CC(C)(C)S(C)=O` (stereo not drawn), the LC retention time is 3.06 min.

For the compound `CCOC(=O)Nc1cccc(OC(=O)Nc2ccccc2)c1`, the LC retention time is 9.23 min. For the compound `CC1=NNC(=O)N(N=Cc2cccnc2)C1`, the LC retention time was 1.58 min. The figure for `Cc1nnc(-c2ccccc2)c(=O)n1N` is 7.23 min; for `CCS(=O)(=O)Cc1ccccc1OC(=O)NC` it is 7 min. As to `CCCOC(=O)NCCCN(C)C`, the LC retention time is 5.17 min. Under `CC#Cc1cc(C)nc(Nc2ccccc2)n1` stands 10 min. Consider `CNC(=O)C=C(C)OP(=O)(OC)OC`, for which the LC retention time was 6.58 min. Under `CC(C)c1ccc(NC(=O)N(C)C)cc1` stands 9.15 min.

With `CCOC(=O)CC(SP(=S)(OC)OC)C(=O)OCC` (stereo not drawn), the LC retention time was 9.59 min. The figure for `CCCSP(=S)(OCC)Oc1ccc(SC)cc1` (stereo not drawn) is 11 min; for `CNc1nc(NC(C)C)nc(SC)n1` it is 8.62 min; for `COP(=S)(OC)SCC(=O)N(C)C=O` it is 8.06 min.

`COc1nn(CSP(=S)(OC)OC)c(=O)s1`: the LC retention time is 9.26 min.
